#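 Step 1: Grow cells in 96-well plates. Step 2: Expose to compound for 48 hours at 5 concentrations. Step 3: Interpolate endpoints linearly; if unreached, use highest concentration. The concentration for 50% growth inhibition is given as GI50. TGI marks complete inhibition of growth.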
# Key:
# Experiment in all cases: NCI tumour cell line growth inhibition, 48 h
# 786-0 renal = test system: 786-0 renal
# A498 renal = test system: A498 renal
# ACHN renal = test system: ACHN renal
# BT-549 breast = test system: BT-549 breast
# CAKI-1 renal = test system: CAKI-1 renal
# CCRF-CEM leukemia = test system: CCRF-CEM leukemia
# COLO 205 colon = test system: COLO 205 colon
# EKVX NSCLC = test system: EKVX NSCLC
# HCC-2998 colon = test system: HCC-2998 colon
# HCT-116 colon = test system: HCT-116 colon
# HCT-15 colon = test system: HCT-15 colon
# HL-60(TB) leukemia = test system: HL-60(TB) leukemia
# HOP-62 NSCLC = test system: HOP-62 NSCLC
# HS 578T breast = test system: HS 578T breast
# HT29 colon = test system: HT29 colon
# IGROV1 ovarian = test system: IGROV1 ovarian
# K-562 leukemia = test system: K-562 leukemia
# KM12 colon = test system: KM12 colon
# LOX IMVI melanoma = test system: LOX IMVI melanoma
# MCF7 breast = test system: MCF7 breast
# MDA-MB-231 breast = test system: MDA-MB-231 breast
# MOLT-4 leukemia = test system: MOLT-4 leukemia
# NCI-H226 lung = test system: NCI-H226 lung
# NCI-H23 lung = test system: NCI-H23 lung
# NCI-H522 lung = test system: NCI-H522 lung
# NCI/ADR-RES ovarian = test system: NCI/ADR-RES ovarian
# OVCAR-3 ovarian = test system: OVCAR-3 ovarian
# OVCAR-4 ovarian = test system: OVCAR-4 ovarian
# OVCAR-5 ovarian = test system: OVCAR-5 ovarian
# OVCAR-8 ovarian = test system: OVCAR-8 ovarian
# RXF 393 renal = test system: RXF 393 renal
# SF-268 CNS = test system: SF-268 CNS
# SF-295 CNS = test system: SF-295 CNS
# SF-539 CNS = test system: SF-539 CNS
# SK-MEL-2 melanoma = test system: SK-MEL-2 melanoma
# SK-MEL-28 melanoma = test system: SK-MEL-28 melanoma
# SK-OV-3 ovarian = test system: SK-OV-3 ovarian
# SNB-19 CNS = test system: SNB-19 CNS
# SNB-75 CNS = test system: SNB-75 CNS
# T-47D breast = test system: T-47D breast
# TK-10 renal = test system: TK-10 renal
# U251 CNS = test system: U251 CNS
# UACC-62 melanoma = test system: UACC-62 melanoma
# UO-31 renal = test system: UO-31 renal
smiles,measurement,setting,value
Cn1c2c(cc(S(=O)(=O)c3ccccc3)c1=O)CCc1c-2cnn1-c1ccc(Cl)cc1,GI50,786-0 renal,2490 nM
same,TGI,786-0 renal,5.51 µM
same,GI50,A498 renal,1060 nM
same,TGI,A498 renal,5.03 µM
same,GI50,ACHN renal,1980 nM
same,TGI,ACHN renal,3.88 µM
same,GI50,BT-549 breast,3.03 µM
same,TGI,BT-549 breast,7.82 µM
same,GI50,CAKI-1 renal,4.36 µM
same,TGI,CAKI-1 renal,> 100 µM
same,GI50,CCRF-CEM leukemia,> 100 µM
same,TGI,CCRF-CEM leukemia,> 100 µM
same,GI50,COLO 205 colon,> 100 µM
same,TGI,COLO 205 colon,> 100 µM
same,GI50,EKVX NSCLC,3.62 µM
same,TGI,EKVX NSCLC,31 µM
same,GI50,HCC-2998 colon,7.31 µM
same,TGI,HCC-2998 colon,> 100 µM
same,GI50,HCT-116 colon,4.14 µM
same,TGI,HCT-116 colon,> 100 µM
same,GI50,HCT-15 colon,3.02 µM
same,TGI,HCT-15 colon,> 100 µM
same,GI50,HL-60(TB) leukemia,> 100 µM
same,TGI,HL-60(TB) leukemia,> 100 µM
same,GI50,HOP-62 NSCLC,2930 nM
same,TGI,HOP-62 NSCLC,7.61 µM
same,GI50,HS 578T breast,2720 nM
same,TGI,HS 578T breast,7.61 µM
same,GI50,HT29 colon,3.31 µM
same,TGI,HT29 colon,> 100 µM
same,GI50,IGROV1 ovarian,3.22 µM
same,TGI,IGROV1 ovarian,> 100 µM
same,GI50,K-562 leukemia,> 100 µM
same,TGI,K-562 leukemia,> 100 µM
same,GI50,KM12 colon,5.12 µM
same,TGI,KM12 colon,> 100 µM
same,GI50,LOX IMVI melanoma,4.09 µM
same,TGI,LOX IMVI melanoma,17.3 µM
same,GI50,MCF7 breast,4.59 µM
same,TGI,MCF7 breast,> 100 µM
same,GI50,MDA-MB-231 breast,2240 nM
same,TGI,MDA-MB-231 breast,5.27 µM
same,GI50,MOLT-4 leukemia,> 100 µM
same,TGI,MOLT-4 leukemia,> 100 µM
same,GI50,NCI-H226 lung,2220 nM
same,TGI,NCI-H226 lung,4.94 µM
same,GI50,NCI-H23 lung,4.65 µM
same,TGI,NCI-H23 lung,> 100 µM
same,GI50,NCI-H522 lung,1780 nM
same,TGI,NCI-H522 lung,4.12 µM
same,GI50,NCI/ADR-RES ovarian,3.09 µM
same,TGI,NCI/ADR-RES ovarian,8.94 µM
same,GI50,OVCAR-3 ovarian,2450 nM
same,TGI,OVCAR-3 ovarian,5.67 µM
same,GI50,OVCAR-4 ovarian,2500 nM
same,TGI,OVCAR-4 ovarian,6.71 µM
same,GI50,OVCAR-5 ovarian,3.37 µM
same,TGI,OVCAR-5 ovarian,> 100 µM
same,GI50,OVCAR-8 ovarian,2730 nM
same,TGI,OVCAR-8 ovarian,6.22 µM
same,GI50,RXF 393 renal,1900 nM
same,TGI,RXF 393 renal,3.71 µM
same,GI50,SF-268 CNS,2240 nM
same,TGI,SF-268 CNS,5.12 µM
same,GI50,SF-295 CNS,2090 nM
same,TGI,SF-295 CNS,5.04 µM
same,GI50,SF-539 CNS,1870 nM
same,TGI,SF-539 CNS,3.4 µM
same,GI50,SK-MEL-2 melanoma,2560 nM
same,TGI,SK-MEL-2 melanoma,5.9 µM
same,GI50,SK-MEL-28 melanoma,3.24 µM
same,TGI,SK-MEL-28 melanoma,13.4 µM
same,GI50,SK-OV-3 ovarian,2340 nM
same,TGI,SK-OV-3 ovarian,5.24 µM
same,GI50,SNB-19 CNS,2010 nM
same,TGI,SNB-19 CNS,4.33 µM
same,GI50,SNB-75 CNS,1930 nM
same,TGI,SNB-75 CNS,4.02 µM
same,GI50,T-47D breast,2060 nM
same,TGI,T-47D breast,5.5 µM
same,GI50,TK-10 renal,2260 nM
same,TGI,TK-10 renal,5.17 µM
same,GI50,U251 CNS,2100 nM
same,TGI,U251 CNS,3.98 µM
same,GI50,UACC-62 melanoma,2350 nM
same,TGI,UACC-62 melanoma,5.07 µM
same,GI50,UO-31 renal,1870 nM
same,TGI,UO-31 renal,6.09 µM

# Reference: PubChem BioAssay (NCI)
